The text below walks through data of patent US9775859B2, “Methods and compositions for preventing and treating a disease related to glycan dysregulation” (Sinai Health System, priority 2005, dated 2017).

“Also recorded” adds a separate entry of the source.

Data set [1] has as its system Jurkat T-cells. The data set can be described thus: L-PHA-FITC staining of Jurkat T cells cultured 3 days with monosaccharides, metabolites, Vitamin D3 or glycosidase inhibitors, FACS. Type of data set: cell-based, human. Particulars: for Mgat5 N-glycans / β1,6GlcNAc-branched N-glycans expression (L-PHA staining): Jurkat T-cells, 3 days culture with supplement. As to the method:
(§1) Mice used for L-PHA staining and quantitative RT-PCR were sex and age matched. […] 129/Sv mice were from an original Mgat5 gene targeted population (28). All other mice (SJL, NOD, Balb/c and B10.S) were obtained from Jackson Laboratories. […] Mouse and Jurkat cells were stained with L-PHA and LEA by first blocking with PBA (2% bovine serum albumin/0.01% azide/PBS) for 10 min at 4° C. and then incubated with 4 μg/ml of L-PHA-FITC (Vector Laboratories Inc.) or 20 μg/ml of LEA-FITC (Sigma) in PBA for 40 min at 4° C. and analyzed by a BD FACSCalihur (BD Pharmingen, San Diego, Calif.). The level of lectin binding was normalized by untreated control and calculated as a percentage (Sample intensity/control intensity-1) %.
(§2) Mice used for L-PHA staining and quantitative RT-PCR were sex and age matched. […] 129/Sv mice were from the original Mgat5 gene targeted population (28). All other mice (SJL, NOD, Balb/c and B10.S) were obtained from Jackson Laboratories. Mouse cells were stained with anti-CD4 (RM4-5), anti-CD8 (53-6.7), anti-CD45R (RA3-6B2) from eBioscience, and L-PHA (4 μg/ml) and LEA (20 μg/ml) from Sigma. […] Jurkat T-cells were cultured in either glutamine free RPMI 1640, 10% FBS, 10 mM/20 mM glucose or glucose/glutamine free DMEM base media supplemented with 10% FBS, 1.5 mM glucose. The indicated monosaccharides and/or metabolites were added daily except glucose which was added only at time zero.

The subject of the next data set is hepatoma cells. Particulars: cited from earlier work.
The next data set deals with T cell. The settings on record: cited from earlier work.
Another data set relates to EAE. The settings on record: mouse, in vivo; cited from earlier work.
In a further data set the test system is human PBMCs. The data set can be described thus: L-PHA staining of human PBMCs / MS patient T cells. In kind it is cell-based. How it is done:
Mononuclear cells were isolated from the blood of subjects using Histopaque-1077™ gradients (Sigma, Saint Louis, Mo.) and cultured in RPMI 1640 medium supplemented with 4 mM glutamine, 1 mM sodium pyruvate, 1% non-essential amino acids, 1% RPMI vitamins, 100 units/ml penicillin, 100 μg/ml streptomycin, and 50 μM […]. T lymphocytes were left unstimulated or were activated for 48 hours with 20 ng/ml anti-CD3 antibody (Biomeda, Foster City, Calif.) or a combination of 20 myelin peptides at […] myelin basic protein (MBP). The myelin peptides were immunodominant peptides from human proteolipid protein (PLP 30-49, PLP 40-60, PLP 95-118, PLP 118-150, PLP-180-189, PLP 185-206), human myelin oligodendrocyte glycoprotein (MOG 38-60, MOG 63-87, MOG 76-100, MOG 89-113, MOG 112-132 and MOG 162-188) and cryptic peptides from MBP (MBP 41-69, MBP 61-79, MBP 121-139 and MBP 131-149) and PLP (PLP 73-104, PLP 145-186, PLP 218-248 and PLP 241-272) that are not normally derived from antigen processing but may be made by extracellular proteolytic activity (57). Whole MBP was isolated from frozen guinea pig spinal cords (Harlan Bioproducts, Indianapolis, Ind.). […] The stained cells were analyzed on a FACScan (BD Biosciences, San Jose, Calif.) using the CellQuest software. […] Background fluorescence was subtracted for each population. […]

Data set [2] relates to splenocytes harvested from MBP immunized wild type PL/J mice. The data set can be described thus: L-PHA and LEA staining of splenocytes from MBP immunized PL/J mice re-stimulated with MBP. In kind it is cell-based, mouse. Particulars: MBP re-stimulation 4 days, GlcNAc 40 mM. As to the method: (§3) Adoptive transfer EAE was induced by s.c. immunization of wild type PL/J mice housed in the UCI vivarium with 100 μg of bovine MBP (Sigma) emulsified in Complete Freund's Adjuvant containing 4 mg/ml heat-inactivated Mycobacterium tuberculosis (H37 RA; Difco, Detroit, Mich.) distributed over three spots on the hind flank. Splenocytes were harvested after 11 days and stimulated in vitro with 50 μg/ml MBP in the presence or absence of 40 mM N-Acetyl-D-glucosamine (Sigma) added daily. After 96 hours incubation, CD3^+ T cells were purified by negative selection (R&D Systems) and 3.5×10^6T-cells were injected i.p. into naïve PL/J Mgat5^+/− recipient mice. Trypan blue exclusion determined <3% dead cells under both culture conditions. The mice were scored daily for clinical signs over the next 30 days with the observer blinded to treatment conditions.
Mice used for L-PHA staining and quantitative RT-PCR were sex and age matched. […] 129/Sv mice were from an original Mgat5 gene targeted population (28). […] Mouse and Jurkat cells were stained with L-PHA and LEA by first blocking with PBA (2% bovine serum albumin/0.01% azide/PBS) for 10 min at 4° C. and then incubated with 4 μg/ml of L-PHA-FITC (Vector Laboratories Inc.) or 20 μg/ml of LEA-FITC (Sigma) in PBA for 40 min at 4° C. and analyzed by a BD FACSCalihur (BD Pharmingen, San Diego, Calif.). […]

Data set [3] deals with Jurkat T-cells. As to the kind of experiment: LEA-FITC staining (poly-N-acetyllactosamine) of Jurkat T cells, FACS. Type of data set: cell-based, human. The settings on record: 3 days culture with supplement. As to the method: as §1, §2
For the next data set, the system named is CD3+ T cells. As to the kind of experiment: Trypan blue exclusion of MBP-stimulated cultures used for adoptive transfer. Type of data set: cell-based. Particulars: 96 hours incubation, 40 mM added daily. How it is done: as §3
(§4) Adoptive transfer EAE was induced by s.c. immunization of wild type PL/J mice housed in the UCI vivarium with 100 μg of bovine MBP (Sigma) emulsified in Complete Freund's Adjuvant containing 4 mg/ml heat-inactivated Mycobacterium tuberculosis (H37 RA; Difco, Detroit, Mich.) distributed over three spots on the hind flank. […] Trypan blue exclusion determined […] dead cells under both culture conditions. Mice were scored daily for clinical signs of EAE over the next 30 days with the observer blinded to treatment conditions.

For data set [4], the system named is splenocytes harvested from MBP immunized wild type PL/J mice. As to the kind of experiment: Cytokine ELISA of supernatant from MBP re-stimulated splenocyte cultures. Type of data set: cell-based, mouse. Particulars: MBP re-stimulation day 4, GlcNAc 40 mM. How it is done: Supernatant from spleenocyte cultures used for adoptive transfer EAE at day 4 of stimulation with MBP in the presence or absence of GlcNAc (40 mM) were tested for INFγ levels. Microtiter plates were coated with 50 μl of anti-IFN-γ (1 μg/ml, clone AN-18; eBiosciences) overnight at 4° C. Supernatants were applied at 50 μl/well in duplicate and incubated for 2 hours at room temperature. Captured cytokines were detected using biotinylated anti-IFN-γ (1 μg/ml, clone R4-6A2; eBiosciences) and detected using Avidin Horse Radish Peroxidase (eBiosciences) at 1:500× dilution and o-Phenylenediamine dihydrochloride OPD tablets (Sigma) according to the manufacturer's protocols. […] Colorimetric change was measured at 450 nm on a microplate autoreader (Labsystems).
Supernatant from splenocyte cultures used for adoptive transfer EAE at day 4 of stimulation with MBP in the presence or absence of GlcNAc (40 mM) were tested for IFN-γ and IL-6 levels. […] Captured cytokines were detected using biotinylated anti-IFN-γ (1 μg/ml, clone R4-6A2; eBiosciences) or anti-IL-6 (1 μg/ml, clone MP5-32C11; eBiosciences) and detected using Avidin Horse Radish Peroxidase (eBiosciences) at 1:500× dilution and o-Phenylenediamine dihydrochloride OPD tablets (Sigma) according to the manufacturer's protocols. […] Colorimetric change was measured at 450 nm on a microplate autoreader (Labsystems).
For orientation: In an ELISA, binding on a coated surface is turned into a signal by an enzyme label.

The test system of data set [5] is Jurkat T-cells. As to the kind of experiment: MS/MS mass spectroscopy of sugar-nucleotide expression in Jurkat cell lysates. Type of data set: cell-based, human. As to the method:
Jurkat cell pellets (20×10^6) were resuspended in a cold 300 μl methanol:water (1:1) solution containing maltose as internal standard, vortexed for 10 seconds, and then pipetted into tubes containing 600 μl of chloroform:methanol (C:M) (3:2). Samples were vortexed for 1 minute, and then centrifuged at 14,000 rpm for 5 minutes at 4° C. Supernatants were collected, and an equal volume of C:M (1:1) was added, followed by a second extraction. The pooled aqueous fraction containing the hydrophilic metabolites was dried with a speedvac and stored at −80° C. Prior to injection, the samples were dissolved in 100 μl methanol:water (1:1). […] The metabolites were identified by their transitions in MS/MS, and quantified using the Analyte Software (SCIEX), which measured the area under the curve for the fragment ions corresponding to each parent ion. Quantities for the given substrates are graphed as pmole/min/10^6 cells.
JurkaT-cell pellets (20×10^6) were resuspended in cold 300 μl methanol:water (1:1) solution containing maltose as an internal standard, vortexed for 10 seconds, and then pipetted into tubes containing 600 μl of chloroform:methanol (C:M) (3:2). […] The metabolites were identified by their transitions in MS/MS, and quantified using the Analyte Software (SCIEX), which measured the area under the curve for the fragment ions corresponding to each parent ion. […]

Data set [6] has as its system naïve PL/J Mgat5+/− recipient mice. The data set can be described thus: Adoptive transfer EAE. Type of data set: in vivo, mouse. Particulars: T-cells re-stimulated in vitro with GlcNAc 40 mM, scored 30 days. How it is done: as §3, §4

As to `C=C1/C(=C\C=C2/CCC[C@]3(C)[C@@H]([C@H](C)CCCC(C)(C)O)CC[C@@H]23)C[C@@H](O)C[C@@H]1O` [Vitamin D3, 1α,25-Dihydroxyvitamin D3], the “reversal of SW induced downregulation of Mgat5 glycans” value in the data set on Jurkat T-cells [1] (Jurkat T cells with swainsonine) is on record as “rescued; also recorded: reversed”. Also, in the data set on Jurkat T-cells [1] (Jurkat T cells, anti-CD3), the “synergy with anti-CD3 in up-regulating Mgat5 glycan levels” value is reported as “synergized”. The “Mgat5 N-glycans / β1,6GlcNAc-branched N-glycans expression (L-PHA staining)” value in the data set with Jurkat T-cells [1] is “enhanced; also recorded: increases”. Further, the “Mgat5 mRNA expression” value with hepatoma cells was “up-regulates”. Further, in the data set with T cell, the INFγ production entry is recorded as “inhibits”, the T cell activation result is listed as “inhibits” and the TH1 differentiation entry is “inhibits”. In the data set with EAE, the EAE result is “inhibits”. Besides, the “reversal of attenuated Mgat5 N-glycan expression in MS patients” value in the data set on human PBMCs (MS patient T cells) is reported as “reversed”. Further, the “Mgat5 modified glycan expression” value with human PBMCs (human PBMCs) is reported as “enhanced”.
In the case of `CC(=O)N[C@H]1C(O)O[C@H](CO)[C@@H](O)[C@@H]1O` (stereo partly drawn) [GlcNAc, N-acetyl-D-glucosamine], in data set [2], the “Mgat5 N-glycan / β1,6GlcNAc-branched N-glycans expression in re-stimulated splenocytes” value is “doubled; also recorded: increased” and the “poly-N-acetyllactosamine expression in re-stimulated splenocytes” value was “doubled; also recorded: increased”. Moreover, in the data set on Jurkat T-cells [1], the “Mgat5 N-glycans / β1,6GlcNAc-branched N-glycans expression (L-PHA staining)” value is on record as “dose dependently increased”. Also, in the data set with Jurkat T-cells [3], the “poly-N-acetyllactosamine expression (LEA staining)” value is given as “dose dependently increased”. The “dead cells (Trypan blue exclusion)” value in the data set with CD3+ T cells is under 5%. In the data set with CD3+ T cells (listed as N-Acetyl-D-glucosamine), the “dead cells (Trypan blue exclusion)” value is given as under 3%. In data set [4], the IL-6 secretion result is “promoted” and the INFγ production result is recorded as “inhibited”. Moreover, the “intracellular UDP-GlcNAc levels” value in the data set on Jurkat T-cells [5] is on record as “dramatically raised”. Further, in [6], the “incidence of EAE following adoptive transfer of T-cells” value is given as “dramatically reduced” and the “severity of EAE following adoptive transfer of T-cells” value was “dramatically reduced”.
